Active and inactive are the calls of the source.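 How the source made its calls: active means IC50 at or below a set limit; inactive means IC50 above that limit.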
These compounds were tested against Group 3 secretory phospholipase A2 (Homo sapiens) (UniProt Q9NZ20) (assay: HGIII-sPLA2 enzyme inhibition potency – biochemical, QFRET, IC50, dose response (AID 743457)). Conditions: recombinant hGIII-sPLA2, BODIPY PC-A2 QFRET fluorescence.
Chain of Group 3 secretory phospholipase A2 (Homo sapiens) (Q9NZ20 whole entry, looked up): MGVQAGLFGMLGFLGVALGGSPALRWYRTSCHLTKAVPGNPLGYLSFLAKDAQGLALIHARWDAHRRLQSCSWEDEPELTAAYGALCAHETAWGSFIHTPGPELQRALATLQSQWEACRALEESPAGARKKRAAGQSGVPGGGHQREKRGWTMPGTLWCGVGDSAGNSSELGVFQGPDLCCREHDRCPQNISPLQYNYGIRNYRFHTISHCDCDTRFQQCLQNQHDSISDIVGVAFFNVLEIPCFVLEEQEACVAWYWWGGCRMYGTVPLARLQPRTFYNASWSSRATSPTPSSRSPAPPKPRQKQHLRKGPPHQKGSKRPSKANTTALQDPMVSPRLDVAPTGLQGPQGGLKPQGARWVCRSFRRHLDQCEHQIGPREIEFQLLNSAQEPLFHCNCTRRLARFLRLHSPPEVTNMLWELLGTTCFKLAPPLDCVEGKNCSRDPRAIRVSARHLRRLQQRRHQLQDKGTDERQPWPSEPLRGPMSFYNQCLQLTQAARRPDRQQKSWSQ

SMILES	IC50
O=[N+]([O-])c1ccc(O)c(N=Cc2sc3ccccc3c2O)c1	> 122 µM (inactive)
C/C(=N\NC(=O)c1nnn(-c2nonc2N)c1CN(C)c1ccccc1)c1ccccc1O	inactive
CC(C)CC(=O)NC(=S)NNC(=O)c1ccc(NC(=O)C2CCCCC2)cc1	> 122 µM (inactive)
Cc1ccc2sc(NNC(=O)c3ccc4c(c3)OCCO4)nc2c1C	inactive
O=C(CCN1C(=O)/C(=C/c2ccccc2Cl)SC1=S)NNC(=O)c1ccccc1O	inactive
CNC(=S)N/N=C/c1cc(Br)cc(Br)c1O	> 122 µM (inactive)
COc1ccc(C(=O)NC(=S)NNC(=O)c2c(-c3ccccc3)noc2C)cc1OC	> 122 µM (inactive)
CC(C)(C)c1csc(NNC(=O)c2ccc(Br)cc2)n1	> 122 µM (inactive)
O=C(N/N=C/c1cc(Cl)cc([N+](=O)[O-])c1O)C(O)(c1ccccc1)c1ccccc1	inactive
O=C1c2ccccc2C(=O)c2c(NCCCN(CCO)CCO)cccc21	> 122 µM (inactive)
CNC(=S)NN=C(C)c1ccc(OC)cc1O	> 122 µM (inactive)
CCCC[n+]1c2ccccc2cc2ccccc21	inactive
COc1ccc(C(=O)NNC(=S)NC(=O)c2cccs2)cc1	inactive
C/C(=N\NC(=S)NCC(C)(C)C)c1cc(F)cc(F)c1O	> 122 µM (inactive)
COc1ccc2nc(Nc3nc4cc5c(cc4s3)OCO5)sc2c1	inactive
C=CCS/C(N)=N\N=C\c1cc(Br)cc([N+](=O)[O-])c1O	> 40.6 µM (inactive)
CCC(C)N1C(=O)/C(=C\c2cc3c4c(c2)CCCN4CCC3)C(=O)NC1=S (stereo not drawn)	inactive
Cc1ccccc1C(=O)NNC(=S)NC(=O)c1cccs1	> 40.6 µM (inactive)

Reference: PubChem BioAssay AID743457 (The Scripps Research Institute Molecular Screening Center, 2014)
